{"source": "the supplement of paper PMC10307832"}
{"compound": "C[C@@H](C(=O)N[C@@H](C1CCCCC1)C(=O)N2CCC[C@H]2C(=O)N[C@@H]3[C@@H](CC4=CC=CC=C34)OCC#CC#CCO[C@@H]5CC6=CC=CC=C6[C@@H]5NC(=O)[C@@H]7CCCN7C(=O)[C@H](C8CCCCC8)NC(=O)[C@H](C)NC)NC [AZD5582] + CS(=O)(=O)CCNCc1ccc(-c2ccc3ncnc(Nc4ccc(OCc5cccc(F)c5)c(Cl)c4)c3c2)o1 [Lapatinib] (partner 2 µM)", "test": "relative viability (nuclei count vs DMSO), 5 days (fraction); higher = more cells survive", "conditions": "first compound 0.05 µM", "in_short": "(§1)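 Nuclei were stained with Hoechst during a one-step fixation (final 0.05% Triton X-100, 1% formaldehyde, 1 ug/ml Hoechst) carried out 5 days after dosing, then counted on 4× images. The cells, lung cancer lines in 1536-well plates, had been dosed by pin tool the day after seeding with one drug alone or a fixed anchor-drug dose plus five library-drug doses (not always all listed) in √10 steps. Relative viability is the nuclei count in treated wells divided by that in vehicle wells, and each value is the median of duplicate plates.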"}
{"cell line": "EPLC-272H", "relative viability": 0.11}
{"cell line": "H3255", "relative viability": 0.216}
{"cell line": "HARA", "relative viability": 0.698}
{"cell line": "HCC-15", "relative viability": 0.655}
{"cell line": "HCC-44", "relative viability": 0.467}
{"cell line": "HCC-78", "relative viability": 0.198}
{"cell line": "HCC-366", "relative viability": 1.08}
{"cell line": "HCC-827", "relative viability": 0.163}
{"cell line": "HOP-62", "relative viability": 0.958}
{"cell line": "IA-LM", "relative viability": 0.584}
{"cell line": "LC-2-ad", "relative viability": 0.904}
{"cell line": "LCLC-97TM1", "relative viability": 0.294}
{"cell line": "LK-2", "relative viability": 0.952}
{"cell line": "LOU-NH91", "relative viability": 0.797}
{"cell line": "LU99A", "relative viability": 1.17}
{"cell line": "LXF-289", "relative viability": 0.922}
{"cell line": "NCI-H23", "relative viability": 0.652}
{"cell line": "NCI-H1299", "relative viability": 0.812}
{"cell line": "NCI-H1395", "relative viability": 1.13}
{"cell line": "NCI-H1650", "relative viability": 0.37}
{"cell line": "NCI-H1793", "relative viability": 0.838}
{"cell line": "NCI-H2170", "relative viability": 0.274}
{"compound": "C[C@@H](C(=O)N[C@@H](C1CCCCC1)C(=O)N2CCC[C@H]2C(=O)N[C@@H]3[C@@H](CC4=CC=CC=C34)OCC#CC#CCO[C@@H]5CC6=CC=CC=C6[C@@H]5NC(=O)[C@@H]7CCCN7C(=O)[C@H](C8CCCCC8)NC(=O)[C@H](C)NC)NC [AZD5582] + C[C@]1(O)C[C@@H](c2nc(-c3ccc4ccc(-c5ccccc5)nc4c3)c3c(N)nccn32)C1 [Linsitinib] (partner 1 µM)", "test": "relative viability (nuclei count vs DMSO), 5 days (fraction); higher = more cells survive", "conditions": "first compound 0.001581 µM", "in_short": "as §1"}
{"cell line": "201T", "relative viability": 1.03}
{"cell line": "A549", "relative viability": 0.545}
{"cell line": "A-427", "relative viability": 1.01}
{"cell line": "ABC-1", "relative viability": 0.766}
{"cell line": "BEN", "relative viability": 0.718}
{"cell line": "CAL-12T", "relative viability": 0.665}
{"cell line": "COR-L23", "relative viability": 0.937}
{"cell line": "COR-L 105", "relative viability": 0.923}
{"cell line": "Calu-6", "relative viability": 0.811}
{"cell line": "EBC-1", "relative viability": 0.828}
{"cell line": "EKVX", "relative viability": 0.872}
{"cell line": "EMC-BAC-2", "relative viability": 0.768}
{"cell line": "EPLC-272H", "relative viability": 0.624}
{"cell line": "H3255", "relative viability": 0.81}
{"cell line": "HARA", "relative viability": 1.01}
{"cell line": "HCC-15", "relative viability": 0.832}
{"cell line": "HCC-44", "relative viability": 0.589}
{"cell line": "HCC-78", "relative viability": 0.455}
{"cell line": "HCC-366", "relative viability": 0.7}
{"cell line": "HCC-827", "relative viability": 0.897}
{"cell line": "HOP-62", "relative viability": 0.654}
{"cell line": "IA-LM", "relative viability": 0.5}
{"cell line": "LC-2-ad", "relative viability": 0.916}
{"cell line": "LCLC-103H", "relative viability": 1.06}
{"cell line": "LOU-NH91", "relative viability": 0.964}
{"cell line": "LU99A", "relative viability": 0.575}
{"cell line": "LXF-289", "relative viability": 0.924}
{"cell line": "NCI-H23", "relative viability": 0.621}
{"cell line": "NCI-H441", "relative viability": 0.453}
{"cell line": "NCI-H1299", "relative viability": 0.93}
{"cell line": "NCI-H1395", "relative viability": 1.05}
{"cell line": "NCI-H1793", "relative viability": 0.816}
{"compound": "C[C@@H](C(=O)N[C@@H](C1CCCCC1)C(=O)N2CCC[C@H]2C(=O)N[C@@H]3[C@@H](CC4=CC=CC=C34)OCC#CC#CCO[C@@H]5CC6=CC=CC=C6[C@@H]5NC(=O)[C@@H]7CCCN7C(=O)[C@H](C8CCCCC8)NC(=O)[C@H](C)NC)NC [AZD5582] + C[C@]1(O)C[C@@H](c2nc(-c3ccc4ccc(-c5ccccc5)nc4c3)c3c(N)nccn32)C1 [Linsitinib] (partner 1 µM)", "test": "relative viability (nuclei count vs DMSO), 5 days (fraction); higher = more cells survive", "conditions": "first compound 0.005 µM", "in_short": "as §1"}
{"cell line": "201T", "relative viability": 1.18}
{"cell line": "A549", "relative viability": 0.768}
{"cell line": "A-427", "relative viability": 1.04}
{"cell line": "ABC-1", "relative viability": 0.958}
{"cell line": "BEN", "relative viability": 1.01}
{"cell line": "CAL-12T", "relative viability": 0.656}
{"cell line": "COR-L23", "relative viability": 0.957}
{"cell line": "COR-L 105", "relative viability": 1.02}
{"cell line": "EBC-1", "relative viability": 0.939}
{"cell line": "EKVX", "relative viability": 1.12}
{"cell line": "EMC-BAC-2", "relative viability": 0.871}
{"cell line": "EPLC-272H", "relative viability": 0.717}
{"cell line": "H3255", "relative viability": 0.975}
{"cell line": "HARA", "relative viability": 0.897}
{"cell line": "HCC-15", "relative viability": 0.779}
{"cell line": "HCC-44", "relative viability": 0.558}
{"cell line": "HCC-78", "relative viability": 0.592}
{"cell line": "HCC-366", "relative viability": 0.754}
{"cell line": "HCC-827", "relative viability": 0.968}
{"cell line": "HOP-62", "relative viability": 1}
{"cell line": "IA-LM", "relative viability": 0.479}
{"cell line": "LC-2-ad", "relative viability": 0.938}
{"cell line": "LCLC-97TM1", "relative viability": 0.16}
{"cell line": "LCLC-103H", "relative viability": 1.33}
{"cell line": "LK-2", "relative viability": 0.685}
{"cell line": "LOU-NH91", "relative viability": 0.924}
{"cell line": "LU99A", "relative viability": 0.622}
{"cell line": "LXF-289", "relative viability": 0.936}
{"cell line": "NCI-H23", "relative viability": 0.421}
{"cell line": "NCI-H441", "relative viability": 0.53}
{"cell line": "NCI-H1299", "relative viability": 1.04}
{"cell line": "NCI-H1395", "relative viability": 1.03}
{"cell line": "NCI-H1793", "relative viability": 1.01}
{"compound": "C[C@@H](C(=O)N[C@@H](C1CCCCC1)C(=O)N2CCC[C@H]2C(=O)N[C@@H]3[C@@H](CC4=CC=CC=C34)OCC#CC#CCO[C@@H]5CC6=CC=CC=C6[C@@H]5NC(=O)[C@@H]7CCCN7C(=O)[C@H](C8CCCCC8)NC(=O)[C@H](C)NC)NC [AZD5582] + C[C@]1(O)C[C@@H](c2nc(-c3ccc4ccc(-c5ccccc5)nc4c3)c3c(N)nccn32)C1 [Linsitinib] (partner 1 µM)", "test": "relative viability (nuclei count vs DMSO), 5 days (fraction); higher = more cells survive", "conditions": "first compound 0.01581 µM", "in_short": "as §1"}
{"cell line": "201T", "relative viability": 0.995}
{"cell line": "A549", "relative viability": 0.444}
{"cell line": "A-427", "relative viability": 1.12}
{"cell line": "ABC-1", "relative viability": 0.913}
{"cell line": "BEN", "relative viability": 0.91}
{"cell line": "CAL-12T", "relative viability": 0.775}
{"cell line": "COR-L23", "relative viability": 0.913}
{"cell line": "COR-L 105", "relative viability": 0.909}
{"cell line": "Calu-6", "relative viability": 0.985}
{"cell line": "EBC-1", "relative viability": 0.883}
{"cell line": "EKVX", "relative viability": 0.875}
{"cell line": "EMC-BAC-2", "relative viability": 0.831}
{"cell line": "EPLC-272H", "relative viability": 0.984}
{"cell line": "H3255", "relative viability": 0.839}
{"cell line": "HARA", "relative viability": 0.951}
{"cell line": "HCC-15", "relative viability": 0.91}
{"cell line": "HCC-44", "relative viability": 0.616}
{"cell line": "HCC-78", "relative viability": 0.5}
{"cell line": "HCC-366", "relative viability": 0.622}
{"cell line": "HCC-827", "relative viability": 0.885}
{"cell line": "HOP-62", "relative viability": 0.966}
{"cell line": "IA-LM", "relative viability": 0.64}
{"cell line": "LC-2-ad", "relative viability": 0.911}
{"cell line": "LCLC-97TM1", "relative viability": 0.191}
{"cell line": "LCLC-103H", "relative viability": 1}
{"cell line": "LK-2", "relative viability": 0.643}
{"cell line": "LOU-NH91", "relative viability": 0.997}
{"cell line": "LU99A", "relative viability": 0.525}
{"cell line": "LXF-289", "relative viability": 0.959}
{"cell line": "NCI-H23", "relative viability": 0.529}
{"cell line": "NCI-H441", "relative viability": 0.454}
{"cell line": "NCI-H1299", "relative viability": 1.01}
{"cell line": "NCI-H1793", "relative viability": 0.752}
{"compound": "C[C@@H](C(=O)N[C@@H](C1CCCCC1)C(=O)N2CCC[C@H]2C(=O)N[C@@H]3[C@@H](CC4=CC=CC=C34)OCC#CC#CCO[C@@H]5CC6=CC=CC=C6[C@@H]5NC(=O)[C@@H]7CCCN7C(=O)[C@H](C8CCCCC8)NC(=O)[C@H](C)NC)NC [AZD5582] + C[C@]1(O)C[C@@H](c2nc(-c3ccc4ccc(-c5ccccc5)nc4c3)c3c(N)nccn32)C1 [Linsitinib] (partner 1 µM)", "test": "relative viability (nuclei count vs DMSO), 5 days (fraction); higher = more cells survive", "conditions": "first compound 0.05 µM", "in_short": "as §1"}
{"cell line": "201T", "relative viability": 1.27}
{"cell line": "A549", "relative viability": 0.726}
{"cell line": "A-427", "relative viability": 0.955}
{"cell line": "ABC-1", "relative viability": 0.971}
{"cell line": "BEN", "relative viability": 1.09}
{"cell line": "CAL-12T", "relative viability": 0.544}
{"cell line": "COR-L23", "relative viability": 1.16}
{"cell line": "COR-L 105", "relative viability": 1.17}
{"cell line": "Calu-6", "relative viability": 0.768}
{"cell line": "EBC-1", "relative viability": 1.03}
{"cell line": "EKVX", "relative viability": 1.14}
{"cell line": "EMC-BAC-2", "relative viability": 0.564}
{"cell line": "EPLC-272H", "relative viability": 0.229}
{"cell line": "H3255", "relative viability": 0.893}
{"cell line": "HARA", "relative viability": 0.867}
{"cell line": "HCC-15", "relative viability": 0.721}
{"cell line": "HCC-44", "relative viability": 0.432}
{"cell line": "HCC-78", "relative viability": 0.45}
{"cell line": "HCC-366", "relative viability": 0.822}
{"cell line": "HCC-827", "relative viability": 0.948}
{"cell line": "HOP-62", "relative viability": 1.09}
{"cell line": "IA-LM", "relative viability": 0.599}
{"cell line": "LC-2-ad", "relative viability": 0.97}
{"cell line": "LCLC-97TM1", "relative viability": 0.148}
{"cell line": "LCLC-103H", "relative viability": 1.19}
{"cell line": "LK-2", "relative viability": 0.795}
